# Data published in patent publication US8455520B2, “Soluble epoxide hydrolase inhibitors, compositions containing such compounds and methods of treatment” (Merck Sharp & Dohme Corp., priority 2007, dated 2013).
# Target: T1, human sEH enzyme (Homo sapiens, UniProt P34913)
# T1 construct: His-tag (N, cleaved yes); made in house; host or cells: E. coli
# T1 sequence (P34913 1-555): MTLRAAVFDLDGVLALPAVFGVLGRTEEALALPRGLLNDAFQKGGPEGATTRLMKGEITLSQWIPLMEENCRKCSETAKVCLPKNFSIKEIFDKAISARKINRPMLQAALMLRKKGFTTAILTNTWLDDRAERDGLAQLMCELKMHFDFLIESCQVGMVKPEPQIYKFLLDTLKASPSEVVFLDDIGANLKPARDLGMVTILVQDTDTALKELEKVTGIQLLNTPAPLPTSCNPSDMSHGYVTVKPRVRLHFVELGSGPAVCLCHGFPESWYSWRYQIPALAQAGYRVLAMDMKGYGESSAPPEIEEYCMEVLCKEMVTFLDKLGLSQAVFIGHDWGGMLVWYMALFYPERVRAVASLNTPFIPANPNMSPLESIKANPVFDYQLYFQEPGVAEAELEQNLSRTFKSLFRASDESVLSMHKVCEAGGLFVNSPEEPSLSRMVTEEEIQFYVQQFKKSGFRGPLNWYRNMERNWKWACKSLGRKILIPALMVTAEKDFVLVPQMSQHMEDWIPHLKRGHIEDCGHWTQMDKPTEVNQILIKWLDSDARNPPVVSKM
# Assay: sEH human enzyme assay (fluorescence based enzyme in vitro assay)
# Type: biochemical
# Settings: recombinant human sEH about 1 nM, fluorescence substrate S7 10 uM, pH7.0, 25° C.; read-out: IC50 [nM] for human sEH enzyme inhibition
# Text: Preparation of Recombinant sEH Human Enzyme
# The DNA for expressing sEH was designed based on a […] sEH cDNA. Necessary Modifications were introduced to optimize for its expression both in E. coli and insect cells. The designed DNA fragment encodes a protein sequence that is identical to full length human sEH, and the DNA was synthesized in vitro. The DNA was then subcloned into the pET100 vector that will generate a fusion protein with an N-terminal His-tag. The recombinant protein was expressed in E. coli. The sEH enzyme was affinity purified by a Ni^++ column. His-tag was removed by Enter Kinase (EK) digestion. The purified enzyme aliquots were frozen and held at −80° C. for later use.
# Fluorescence Based Enzyme In Vitro Assay
# For each assay (100 ul), an aliquot of enzymes (about 1 nM final concentration) was incubated with a fluorescence substrate, S7 (10 uM final concentration), in sEH assay buffer (25 mM HEPES, pH7.0, 0.1 mg/ml BSA) in a 96-well plate. The kinetic reaction reading (Ex330/Em465) was conducted using a plate reader, Spectra max (Molecular Devices) at 25° C.
row,IC50,Structure (SMILES)
1,2 nM,O=C(Nc1ccc(Cl)cc1)N1CCCC(COCc2cc(C(F)(F)F)cc(C(F)(F)F)c2)(c2ccccc2)C1 (stereo not drawn) [Example 1]
2,5 nM,O=C(O)CCC1(c2ccccc2)CCCN(C(=O)Nc2ccc(Cl)cc2)C1 (stereo not drawn) [Example 3]
3,< 1 nM,O=C(Nc1ccc(Cl)cc1)N1CCCC(Cc2ccc(Cl)cc2)(c2ccccc2)C1 (stereo not drawn) [Example 5]
4,8 nM,O=C(O)CCC1(c2ccc(-c3ccccc3)cc2)CCCN(C(=O)Nc2ccc(OC(F)(F)F)cc2)C1 (stereo not drawn) [Example 6]
5,< 1 nM,COC(=O)CCC1(c2ccc(F)cc2)CCCN(C(=O)NCCCc2ccccc2)C1 (stereo not drawn) [Example 7]
6,6 nM,O=C(O)CCC1(c2ccc(F)cc2)CCCN(C(=O)NCCCc2ccccc2)C1 (stereo not drawn) [Example 8]
7,3 nM,COC(=O)CCC1(c2ccccc2)CCCN(C(=O)Nc2ccc(-n3nc(C(F)(F)F)cc3C(F)(F)F)cc2)C1 (stereo not drawn) [Example 10]
8,3 nM,O=C(O)CCC1(c2ccccc2)CCCN(C(=O)Nc2ccc(-n3nc(C(F)(F)F)cc3C(F)(F)F)cc2)C1 (stereo not drawn) [Example 11]
9,59 nM,CC1(c2ccccc2)CCCN(C(=O)Nc2noc3ccccc23)C1 (stereo not drawn) [Example 13]
10,2 nM,O=C(Nc1ccc(C(F)(F)F)cc1)N1CCCC(CO)(Cc2ccccc2)C1 (stereo not drawn) [Example 14]
11,6 nM,CNC(=O)C1(Cc2ccccc2)CCCN(C(=O)Nc2ccc(C(F)(F)F)cc2)C1 (stereo not drawn) [Example 16]
12,5 nM,O=C(NCc1ccc(Cl)c(Cl)c1)N1CCCC(CCc2noc(C(F)(F)F)n2)(c2ccccc2)C1 (stereo not drawn) [Example 18]
13,< 1 nM,CC1(c2ccccc2)CCCN(C(=O)NCCc2ccc(Cl)cc2)C1 (stereo not drawn) [Example 30]
14,6 nM,CC1(c2ccccc2)CCCN(C(=O)NCCCc2cccnc2)C1 (stereo not drawn) [Example 33]
15,5 nM,CC1(c2ccccc2)CCCN(C(=O)NCCc2ccc3nccnc3c2)C1 (stereo not drawn) [Example 34]
16,30 nM,CC1(c2ccccc2)CCCN(C(=O)NCc2nc3ccccc3s2)C1 (stereo not drawn) [Example 38]
17,6 nM,CC1(c2ccccc2)CCCN(C(=O)NCc2ccc(-c3ccccc3Cl)cc2)C1 (stereo not drawn) [Example 40]
18,1.5 nM,CC1(c2ccccc2)CCCN(C(=O)NCc2ccc(-c3cccnc3)cc2)C1 (stereo not drawn) [Example 41]
19,7 nM,CC1(c2ccccc2)CCCN(C(=O)NCc2ccc(-c3ccc4[nH]ccc4c3)cc2)C1 (stereo not drawn) [Example 42]
20,6 nM,CC1(c2ccccc2)CCCN(C(=O)NCc2ccc(-c3ccc4cn[nH]c4c3)cc2)C1 (stereo not drawn) [Example 43]
21,3 nM,CC1(c2ccccc2)CCCN(C(=O)NCc2ccc(-c3cccc4cnccc34)cc2)C1 (stereo not drawn) [Example 44]
22,5 nM,NC(=O)CCC1(c2ccccc2)CCCN(C(=O)Nc2ccc(Cl)cc2)C1 (stereo not drawn) [Example 45]
23,3 nM,N#CCCC1(c2ccccc2)CCCN(C(=O)Nc2ccc(Cl)cc2)C1 (stereo not drawn) [Example 46]
24,5 nM,O=C(Nc1ccc(Cl)cc1)N1CCCC(CCc2nnn[nH]2)(c2ccccc2)C1 (stereo not drawn) [Example 47]
25,1 nM,O=C(CCC1(c2ccccc2)CCCN(C(=O)Nc2ccc(Cl)cc2)C1)Nc1nnn[nH]1 (stereo not drawn) [Example 48]
26,5 nM,CNC(=O)CCC1(c2ccccc2)CCCN(C(=O)Nc2ccc(Cl)cc2)C1 (stereo not drawn) [Example 50]
27,< 1 nM,COC(=O)CCCC1(c2ccccc2)CCCN(C(=O)Nc2ccc(Cl)cc2)C1 (stereo not drawn) [Example 51]
28,12 nM,O=C(O)CCCC1(c2ccccc2)CCCN(C(=O)Nc2ccc(Cl)cc2)C1 (stereo not drawn) [Example 52]

# The next lines start with the molecule.
row,Structure (SMILES),IC50
1,CC1(c2ccccc2)CCCN(C(=O)NC[C@H]2C[C@@H]2c2ccccc2)C1 (stereo in doubt) [Example 28],7 nM
2,CC1N(C(=O)Nc2ccc(Cl)cc2)CCCC1(C)c1ccccc1 (stereo not drawn) [Example 4],5 nM
3,CCOC(=O)C1(Cc2c(Cl)cccc2Cl)CCCN(C(=O)Nc2ccc(C(F)(F)F)cc2)C1 (stereo not drawn) [Example 9],< 1 nM
4,CC1(c2ccccc2)CCCN(C(=O)Nc2nnc(-c3ccccc3)s2)C1 (stereo not drawn) [Example 12],341 nM
5,O=C(NC1(Cc2ccccc2)CCCN(C(=O)Nc2ccc(C(F)(F)F)cc2)C1)OCc1ccccc1 (stereo not drawn) [Example 15],5 nM
6,N#CC1(Cc2ccccc2)CCCN(C(=O)Nc2ccc(C(F)(F)F)cc2)C1 (stereo not drawn) [Example 17],2 nM
7,O=C(Nc1ccc(C(F)(F)F)cc1)N1CCCC(Cc2ccccc2)(C(=O)NCCc2c[nH]c3ccccc23)C1 (stereo not drawn) [Example 20],< 1 nM
8,CCOC(=O)C1(Cc2cccc3ccccc23)CCCN(C(=O)Nc2ccc(C(F)(F)F)cc2)C1 (stereo not drawn) [Example 21],3 nM
9,CCOC(=O)C1(Cc2nc3ccccc3[nH]2)CCCN(C(=O)Nc2ccc(C(F)(F)F)cc2)C1 (stereo not drawn) [Example 22],3 nM
10,O=C(Nc1ccc(C(F)(F)F)cc1)N1CCCC(Cc2ccccn2)(C(=O)OCc2ccccc2)C1 (stereo not drawn) [Example 23],2 nM
11,CCOC(=O)C1(Cc2nccn2Cc2ccccc2)CCCN(C(=O)Nc2ccc(C(F)(F)F)cc2)C1 (stereo not drawn) [Example 24],7 nM
12,CN(C)C(=O)C1(Cc2ccccc2)CCCN(C(=O)Nc2ccc(C(F)(F)F)cc2)C1 (stereo not drawn) [Example 25],3 nM
13,CC1(c2ccccc2)CCCN(C(=O)NC2CC2c2ccccc2)C1 (stereo not drawn) [Example 27],1 nM
14,CC1(c2ccccc2)CCCN(C(=O)NC2C3CC4CC(C3)CC2C4)C1 (stereo not drawn) [Example 29],10 nM
15,CC1(c2ccccc2)CCCN(C(=O)NCCCCc2ccccc2)C1 (stereo not drawn) [Example 31],1 nM
16,CC1(c2ccccc2)CCCN(C(=O)Nc2cccnc2)C1 (stereo not drawn) [Example 32],306 nM
17,CC1(c2ccccc2)CCCN(C(=O)NCC2CCc3ccccc3C2)C1 (stereo not drawn) [Example 35],2 nM
18,CC1(c2ccccc2)CCCN(C(=O)NC2CCc3ccccc3C2)C1 (stereo not drawn) [Example 36],1 nM
19,CC1(c2ccccc2)CCCN(C(=O)NC2CCc3ccccc3CC2)C1 (stereo not drawn) [Example 37],2 nM
20,Cc1nc(C2(C)CCCN(C(=O)Nc3ccc(C(F)(F)F)cc3)C2)no1 (stereo not drawn) [Example 49],5 nM
